Measured values reported in patent publication US11753418B2, “Compounds for the modulation of Myc activity” (Syros Pharmaceuticals, Inc., priority 2015, dated 2023).
Where a name gives a salt, the structure may show the parent alone.

What was measured:
[1] = biological target: T1, c-Myc/Max/Ebox DNA (Homo sapiens, UniProt P01106); experiment: c-Myc/Max/Ebox DNA AlphaScreen Assay; assay type: binding; details: free c-Myc 20 nM, his6-Max 5 nM, biotinylated Ebox oligo 10 nM, 2 hour incubation
T1 construct: his6 (cleaved yes)
T1 sequence (P01106 whole entry): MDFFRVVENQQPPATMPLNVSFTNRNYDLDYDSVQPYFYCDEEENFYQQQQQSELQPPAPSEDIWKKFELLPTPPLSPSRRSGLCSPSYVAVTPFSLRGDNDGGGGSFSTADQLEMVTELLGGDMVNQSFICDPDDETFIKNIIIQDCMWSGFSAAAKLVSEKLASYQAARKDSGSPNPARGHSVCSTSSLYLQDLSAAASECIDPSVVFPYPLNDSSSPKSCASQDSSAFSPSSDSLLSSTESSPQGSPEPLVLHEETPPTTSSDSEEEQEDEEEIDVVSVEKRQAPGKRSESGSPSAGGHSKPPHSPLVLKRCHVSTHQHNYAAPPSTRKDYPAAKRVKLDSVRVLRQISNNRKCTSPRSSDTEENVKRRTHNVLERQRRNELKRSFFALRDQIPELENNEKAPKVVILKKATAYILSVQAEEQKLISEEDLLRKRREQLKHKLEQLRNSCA
Experimental: Compounds of the invention were assayed for c-Myc/Max/EBox activity as described in the following protocol. Human his6-c-Myc and his6-Max were used with biotinylated DNA containing a single Ebox sequence (biotin[…]) purchased from MWG Operon. Free c-Myc was generated from his6-c-Myc through thrombin cleavage of the his6 tag. For 384-well plate assays, 10 μL of a 2× solution of free c-Myc (20 nM final), Ni^2+ coated Acceptor Beads (25 μg/ml final), and biotinylated Ebox oligo (10 nM final) were added to 384-well plates with a Biotek EL406 liquid handler. 50 nL of compounds from stock plates were added by pin transfer using a Janus Workstation (PerkinElmer), allowing the compounds to interact with c-Myc prior to c-Myc binding with Max. In the current assay, DMSO was not allowed to exceed 2% v/v of the assay. 10 μl of 2× master mix containing streptavidin-coated donor beads (25 μg/ml final) and his6-Max (5 nM) were added. AlphaScreen measurements were performed on an Envision plate reader (PerkinElmer) utilizing the manufacturer's protocol.
Both master mixes were made in room temperature assay buffer (50 mM HEPES, 150 mM NaCl, 0.2% w/v BSA, 0.02% w/v Tween20, 40 μg/ml glycogen, 500 μM DTT, pH 8.0, wherein both DTT and glycogen were added fresh). Alpha beads were added to respective master solutions. All subsequent steps were performed in low light conditions. Solution 1: 2× solution of components with final concentrations of c-Myc Ni-coated Acceptor Beads (25 μg/ml), and biotinylated Ebox oligo (10 nM). Solution 2: 2× solution of streptavidin-coated donor beads (25 μg/ml final) and his6-Max […]. Solution 1 was added to 384-well plate (AlphaPlate-384, PerkinElmer) with Biotek EL406 liquid handler and the plates were centrifuged very briefly. 50 nL of compounds from stock plates were added by pin transfer using a Janus Workstation. Solution 2 (10 μL) was added with the liquid handler. Plates were sealed with foil to block light exposure and prevent evaporation. Plates were very briefly centrifuged followed by 2 hour incubation. AlphaScreen measurements were performed on an Envision 2104 utilizing the manufacturer's protocol. Excitation was at 680 nm for donor bead release of singlet oxygen and emission was read with a bandpass filter from 520-620 nm. Glycogen: Roche Diagnostics #10901393001. Plate 1536: Perkin Elmer, 6004350. Plate 384: Perkin Elmer, 6005350. Nickel-His Alpha Beads: 6760619R. The data from this assay are summarized in Table 3 below (Myc/Max/DNA Activity).

[2] = tested on: human small lung cancer cell line H2171; experiment: Cell Viability Assay (ATPlite); assay type: cell-based; details: NCI-H2171, 72 h, H2171 cells, incubated for three days, ATPlite readout
Experimental: Compounds of the invention were assayed for cell viability using the human small lung cancer cell line H2171 as described in the following protocol. Cells were counted and adjusted to 20,000 cells/mL. Using a Biotek EL406, 50 μL of cells in media were distributed into 384 well white plates from Thermo. Immediately after plating, compound in DMSO was distributed to plates. Compounds were added to plates using a 50 nL 384 well pin transfer manifold on a Janus workstation. Stocks were arrayed in 10 point dose response in DMSO stock in 384 well Greiner compound plates. After the addition of compounds, plates were incubated for three days in a 37° C. incubator. Cell viability was read out using ATPlite from Perkin Elmer. Lyophilized powder was resuspended in lysis buffer and diluted 1:2 with deionized water. 25 μL of this solution was added to each well using the Biotek liquid handler. Plates were incubated for 15 minutes at room temperature before signal was read on an Envision Plate Reader. The data from this assay are summarized in Table 3 below (H2171 activity).

Row | IC50 [1] | IC50 [2] | SMILES
1 | < 500 nM | < 500 nM | CC(=O)Nc1sc2c(c1-c1nc3c(C(F)F)nccc3s1)CCNC2 [Compound 106, N-[3-[4-(difluoromethyl)thiazolo[4,5-c]pyridin-2-yl]-4,5,6,7-tetrahydrothieno[2,3-c]pyridin-2-yl]acetamide]
2 | 500 to 5000 nM | 500 to 5000 nM | CC(=O)Nc1sc2c(c1-c1nc3c[n+]([O-])ccc3s1)CCNC2 [Compound 108, 2-(2-acetamido-4,5,6,7-tetrahydrothieno[2,3-c]pyridin-3-yl)thiazolo[4,5-c]pyridine 5-oxide]
3 | 500 to 5000 nM | 500 to 5000 nM | CC(=O)Nc1sc2c(c1-c1nc3cnccc3s1)CCN(C)C2 [Compound 114, N-(6-methyl-3-(thiazolo[4,5-c]pyridin-2-yl)-4,5,6,7-tetrahydrothieno[2,3-c]pyridin-2-yl)acetamide]
4 | < 500 nM | < 500 nM | CC(=O)Nc1sc2c(c1-c1nc3c(C)nccc3s1)CCNC2 [Compound 118, N-(3-(4-methylthiazolo[4,5-c]pyridin-2-yl)-4,5,6,7-tetrahydrothieno[2,3-c]pyridin-2-yl)acetamide]
5 | < 500 nM | < 500 nM | CCN1[C@H](C)Cc2c(sc(NC(C)=O)c2-c2nc3cnccc3s2)[C@H]1C [Compound 119, N-((5R,7R)-6-ethyl-5,7-dimethyl-3-(thiazolo[4,5-c]pyridin-2-yl)-4,5,6,7-tetrahydrothieno[2,3-c]pyridin-2-yl)acetamide]
6 | < 500 nM | < 500 nM | CC[C@H](C)NCCC(=O)Nc1sc2c(c1-c1nc3cnccc3s1)CCNC2 [Compound 122, (S)-3-(sec-butylamino)-N-(3-(thiazolo[4,5-c]pyridin-2-yl)-4,5,6,7-tetrahydrothieno[2,3-c]pyridin-2-yl)propanamide]
7 | < 500 nM | 500 to 5000 nM | COCC(NCCC(=O)Nc1sc2c(c1-c1nc3cnccc3s1)CCNC2)C(C)C (centres unmarked) [Compound 134]
8 | < 500 nM | < 500 nM | O=C(CCN[C@@H]1C[C@H]2CNC[C@H]2C1)Nc1sc2c(c1-c1nc3cnccc3s1)CCNC2 [Compound 153]
9 | < 500 nM | < 500 nM | O=C(CCN1CC(C(=O)O)C1)Nc1sc2c(c1-c1nc3cnccc3s1)CCNC2 [Compound 172]
10 | < 500 nM | < 500 nM | O=C(CCN[C@H]1CC[C@H](O)C1)Nc1sc2c(c1-c1nc3cnccc3s1)CCNC2 [Compound 176]
11 | < 500 nM | < 500 nM | O=C(CCN[C@H]1CC[C@]2(CCC(=O)N2)CC1)Nc1sc2c(c1-c1nc3cnccc3s1)CCNC2 [Compound 177]
12 | 500 to 5000 nM | < 500 nM | O=C(CCN1CCCCC12CNC2)Nc1sc2c(c1-c1nc3cnccc3s1)CCNC2 [Compound 183]
13 | < 500 nM | < 500 nM | CN(CCCn1ccnc1)CCC(=O)Nc1sc2c(c1-c1nc3cnccc3s1)CCNC2 [Compound 190]
14 | < 500 nM | 500 to 5000 nM | Cn1cncc1CNCCC(=O)Nc1sc2c(c1-c1nc3cnccc3s1)CCNC2 [Compound 203]
15 | < 500 nM | 500 to 5000 nM | O=C(CCN1CCCC12CNC2)Nc1sc2c(c1-c1nc3cnccc3s1)CCNC2 [Compound 206]
16 | < 500 nM | < 500 nM | COCCNCCC(=O)Nc1sc2c(c1-c1nc3cnccc3s1)CCNC2 [Compound 216, 3-((2-methoxyethyl)amino)-N-(3-(thiazolo[4,5-c]pyridin-2-yl)-4,5,6,7-tetrahydrothieno[2,3-c]pyridin-2-yl)propanamide]
17 | < 500 nM | < 500 nM | CC[C@@H](C)NCCC(=O)Nc1sc2c(c1-c1nc3cnccc3s1)CCNC2 [Compound 217, (R)-3-(sec-butylamino)-N-(3-(thiazolo[4,5-c]pyridin-2-yl)-4,5,6,7-tetrahydrothieno[2,3-c]pyridin-2-yl)propanamide]
18 | < 500 nM | < 500 nM | O=C(CCNCCc1cccnc1)Nc1sc2c(c1-c1nc3cnccc3s1)CCNC2 [Compound 218, 3-((2-(pyridin-3-yl)ethyl)amino)-N-(3-(thiazolo[4,5-c]pyridin-2-yl)-4,5,6,7-tetrahydrothieno[2,3-c]pyridin-2-yl)propanamide]
19 | < 500 nM | < 500 nM | CN(C)CCC(=O)Nc1sc2c(c1-c1nc3cnccc3s1)CCNC2 [Compound 219, 3-(dimethylamino)-N-(3-(thiazolo[4,5-c]pyridin-2-yl)-4,5,6,7-tetrahydrothieno[2,3-c]pyridin-2-yl)propanamide]
20 | < 500 nM | < 500 nM | CC(C)NCCC(=O)Nc1sc2c(c1-c1nc3ncccc3s1)CCNC2 [Compound 220, 3-(isopropylamino)-N-(3-(thiazolo[4,5-b]pyridin-2-yl)-4,5,6,7-tetrahydrothieno[2,3-c]pyridin-2-yl)propanamide dihydrochloride]
21 | < 500 nM | < 500 nM | O=C(CCNC1CNC1)Nc1sc2c(c1-c1nc3cnccc3s1)CCNC2 [Compound 223, 3-(Azetidin-3-ylamino)-N-(3-(thiazolo[4,5-c]pyridin-2-yl)-4,5,6,7-tetrahydrothieno[2,3-c]pyridin-2-yl)propanamide]
22 | < 500 nM | 500 to 5000 nM | CNCCC(=O)Nc1sc2c(c1-c1nc3cnccc3s1)CCNC2 [Compound 224, 3-(Methylamino)-N-(3-(thiazolo[4,5-c]pyridin-2-yl)-4,5,6,7-tetrahydrothieno[2,3-c]pyridin-2-yl)propanamide]
23 | < 500 nM | < 500 nM | Cc1cc2sc(-c3c(NC(=O)CCNC(C)C)sc4c3CCNC4)nc2c(C)n1 [Compound 225, N-(3-(4,6-Dimethylthiazolo[4,5-c]pyridin-2-yl)-4,5,6,7-tetrahydrothieno[2,3-c]pyridin-2-yl)-3-(isopropylamino)propanamide dihydrochloride]

Row | SMILES | IC50 [1] | IC50 [2]
24 | CC(=O)Nc1sc2c(c1-c1nc3cnccc3s1)CCN(C(C)CN1CCOCC1)C2 (centres unmarked) [Compound 105, N-(6-(1-morpholinopropan-2-yl)-3-(thiazolo[4,5-c]pyridin-2-yl)-4,5,6,7-tetrahydrothieno[2,3-c]pyridin-2-yl)acetamide] | 500 to 5000 nM | 500 to 5000 nM
25 | CC(=O)Nc1sc2c(c1-c1nc3cnccc3s1)C(C)CN(C(C)C)C2 (centres unmarked) [Compound 107, N-(6-isopropyl-4-methyl-3-(thiazolo[4,5-c]pyridin-2-yl)-4,5,6,7-tetrahydrothieno[2,3-c]pyridin-2-yl)acetamide] | 500 to 5000 nM | 500 to 5000 nM
26 | CC(=O)Nc1sc2c(c1-c1nc3cnccc3s1)CCC(N)C2 (centres unmarked) [Compound 113, N-(6-amino-3-(thiazolo[4,5-c]pyridin-2-yl)-4,5,6,7-tetrahydrobenzo[b]thiophen-2-yl)acetamide] | 500 to 5000 nM | < 500 nM
27 | CCC(C)NCCC(=O)Nc1sc2c(c1-c1nc3cnccc3s1)CCN(C(C)C)C2 (centres unmarked) [Compound 116, 3-(sec-butylamino)-N-(6-isopropyl-3-(thiazolo[4,5-c]pyridin-2-yl)-4,5,6,7-tetrahydrothieno[2,3-c]pyridin-2-yl)propanamide dihydrochloride] | < 500 nM | < 500 nM
28 | CCN1C(C)Cc2c(sc(NC(C)=O)c2-c2nc3cnccc3s2)C1C (centres unmarked) [Compound 117, N-(6-ethyl-5,7-dimethyl-3-(thiazolo[4,5-c]pyridin-2-yl)-4,5,6,7-tetrahydrothieno[2,3-c]pyridin-2-yl)acetamide] | 500 to 5000 nM | 500 to 5000 nM
